# Key:
# [1] = Plasma clearance in C57BL/6 mouse at 1 mg/kg, iv and 2 mg/kg, po; assay type: ADME, organism-based
# [2] = Plasma half life in C57BL/6 mouse at 1 mg/kg, iv and 2 mg/kg, po; assay type: ADME, organism-based
# [3] = Bioavailability in C57BL/6 mouse at 1 mg/kg, iv and 2 mg/kg, po; assay type: ADME, organism-based; conditions: in vivo
# [4] = Volume of distribution at steady state in C57BL/6 mouse at 1 mg/kg, iv and 2 mg/kg, po; assay type: ADME, organism-based; conditions: in vivo, read-out: Vdss
# [5] = system: Mus musculus; test: Toxicity in C57B1/6 mouse assessed as cutaneous flushing at 30 mg/kg after 15 mins by laser doppler method; assay type: organism-based; parameters: dose 30 mg/kg; conditions: in vivo
# [6] = system: Mus musculus; test: Reduction in plasma free fatty acid level in C57B1/6 mouse at 10 mg/kg after 15 mins; assay type: functional; parameters: scale not given: the % may be the effect or the level left
clearance [1],half-life [2],bioavailability [3],Vd [4],SMILES,Activity [5],Activity [6]
1.26 L/h/kg,1.5 h,34%,0.7 L/kg,CCCCC1Cc2[nH]nc(-c3nnn[nH]3)c2C1 (stereo in doubt; 8d),–,–
8.7 L/h/kg,–,100%,1 L/kg,O=C(O)c1cccnc1 [NIACIN],–,–
1.62 L/h/kg,2.4 h,10%,1.1 L/kg,Fc1cc(F)c(F)c(C2Cc3[nH]nc(-c4nnn[nH]4)c3C2)c1 (stereo in doubt; 9o),Non-toxic,24%
2.82 L/h/kg,1.8 h,57%,1.79 L/kg,Fc1cccc(C2Cc3[nH]nc(-c4nnn[nH]4)c3C2)c1 (stereo unspecified),–,–
1.8 L/h/kg,2.9 h,51%,1.55 L/kg,CCCC1Cc2[nH]nc(-c3nnn[nH]3)c2C1 (stereo unspecified),–,–
